Consider one compound from patent publication US9504701B2, “Methods for treating viral infections using hydrogen sulfide donors” (THE BOARD OF REGENTS OF THE UNIVERSITY OF TEXAS SYSTEM, priority 2014, dated 2016).

The structures appear in SMILES notation.

Data set [1] deals with A549 cells infected with RSV. The class given is cell-based, human.
Another data set deals with RSV. The data set can be described thus: RSV replication in A549 cells, viral titers by plaque assay. The format is cell-based, RSV Long strain. The settings on record: PAG 20 or 40 mM, 24 h p.i.

`C#CCC(N)C(=O)O` (racemic) [PAG, DL-propargylglycin]: in data set [1], the “levels of production of several cytokines and chemokines in response to RSV infection” value is given as “significantly increased”. The “increase in viral infectious-particle formation (plaque assay)” value with RSV is recorded as 3- to 4 fold. In addition, in the data set on uninfected cells, the “basal cellular mediator secretion” value is “no effect” and the “uninfected-cell viability (trypan blue exclusion)” value is listed as “no effect”.
